US20250136997A1, “COMPOSITIONS FOR SEQUESTERING ISOAMYL AMINE AND METHODS OF USE THEREFOR” (University of Louisville Research Foundation, Inc., priority 2023, published 2025)

Legend:
microglial cells = assay: Western blot of cleaved caspase-3 and cleaved PARP in ex vivo cultured microglial cells; format: cell-based, mouse
Procedure: Isolation of microglia, neuron, astrocytes, and oligodendrocytes from the brain. Mice were anaesthetized with a mixture of ketamine (16%) and xylazine (3%) by intraperitoneal injection and then sacrificed under basal conditions by transcardial perfusion with perfusion buffer (Ca^2+/Mg^2+ free HBSS containing 0.5 mM EGTA, 10 mM HEPES and 4.2 mM NaHCO3; pH 7.2). The perfused brain was removed and gently mechanically disaggregated with tweezers in dissociation buffer (HBSS containing 10 mM HEPES and 4.2 mM NaHCO3 supplemented with Type I collagenase (0.05%), Dispase II (25 mg/ml), DNase I (2.5 mg/ml), trypsin inhibitor ([…]); pH 7.5) followed by incubation at 37° C. for 1 hour. The tissue homogenate was centrifuged at 1,350×g for 5 minutes at 4° C. For the isolation of microglia, the digestion enzymes in the tissue homogenate were inactivated by addition of PBS/EDTA containing 5% fetal bovine serum (FBS) and the digested brain bits were triturated gently, passed over a 100 µm filter (Fisher Scientific) and centrifuged. […] The pellet of cells was rinsed in PBS. Any contaminating red blood cells (RBC) were lysed using RBC lysis buffer (Sigma) according to the manufacturer's instructions, rinsed twice with PBS and passed through a 40 µm filter (Fisher Scientific). Cells were then stained for CD11b and CD45 for flow cytometry analysis. The astrocytes were isolated from mouse cortices (n=10). The tissue homogenate was centrifuged at 800×g for 10 minutes at 4° C. following digestion with type II collagenase (1 mg/ml) and type I DNase (10 U/ml) in DMEM for 10 minutes. The cells pelleted by centrifugation were plated in a 100 mm culture dish coated with poly-L-ornithine (Sigma). For the isolation of oligodendrocytes, the glial cells above were cultured in specific media containing T3 and T4 (0.5 mM) as well as platelet-derived growth factor (PDGF, 10 ng/ml) to promote the growth of the different cell types. Isolated glial cells were labelled with the following antibodies against surface markers: CD11b (Biolegend, Cat #101206), CD45 (Biolegend, Cat #147710), GFAP (Biolegend, Cat #837508) and MOG (Biorbyt, Cat #orb412341-FITC). Cells positive for CD11b and CD45Med were identified as microglia. Cells positive for GFAP and negative for CD45 and CD11b were identified as astrocytes. Cells sorted with MOG+CD11b− were identified as oligodendrocytes. Neurons were isolated from mouse brain using the Pierce Primary Neuron Isolation Kit (Thermo Scientific, Cat #88280). Briefly, the tissue homogenate from freshly dissected cortexes was suspended in an equal volume of ice cold HBSS (Sigma) and replaced with Neuronal Isolation Enzyme (with papain) in a 37° C. incubator for 30 minutes. After washing with HBSS, the tissue was cultured in a poly-D-lysine coated plate with Neuronal Culture Medium.
Western blotting. Cells were treated as indicated in individual Figure legends and whole cell extracts (WCE) were prepared in the radioimmunoprecipitation assay (RIPA) buffer (Sigma) with addition of protease and phosphatase inhibitors (Roche). Proteins were separated by 10% SDS-PAGE and transferred to polyvinylidene difluoride (PVDF) membranes (Bio-Rad Laboratories, Inc., Hercules, CA). Dual color precision protein MW markers (BioRad) were separated in parallel. Antibodies were purchased as follows: cleaved-caspase-3 (ab214430), cleaved PARP (ab203467) and GAPDH (ab9657, Abcam) from Abcam; S100A8 (47310) and S100a9 (72590) from Cell Signaling; and Ltf (GTX81085) from GeneTex. The secondary antibodies conjugated to Fluors Alex-488 (A32723) or Alex-594 (A11012) were purchased from Invitrogen (Eugene, OR). The bands were visualized on the Odyssey Imager (LiCor Inc, Lincoln, NE).

[1] = test system: IAA binding oligo of the S100A8 promoter (hairpin); assay: Nucleic acid unwinding assay (helicase); format: biochemical
Procedure: Nucleic acid unwinding assay. Helicase reactions were carried out in triplicate in 96-well plates. To prepare DNA substrate, 20 μM single strand DNA (WT: 5′-Cy3-[…]-BHQ1-3′ (SEQ ID NO: 5); Mutant: 5′-Cy3-[…]-BHQ1-3′ (SEQ ID NO: 6; Eurofins Genomics LLC, KY) were denatured at 95° C. for 5 minutes in the reaction buffer (25 mM Tris HCl pH 7.5, 100 mM NaCl, 15 mM MgCl2, 1 mM DTT, 0.1 mg/ml BSA) and cooled slowly to room temperature before add IAA (100 nM) and/or helicase ([…]). After ATP (2 mM) was added to initiate the helicase activity, the fluorescence value was recorded using a microplate reader with an excitation wavelength of 550 and an emission wavelength of 570. BHQ: black-hole quencher.

[2] = Surface plasmon resonance (SPR) of biotin-labeled oligos with IAA; format: binding; settings: biotin labeled oligo on streptavidin sensor chip
Procedure: Surface plasmon resonance (SPR). To identify the binding activity of the metabolite IAA and S100A8 promoter sequence, SPR experiments were conducted on an OPENSPR™ (Nicoya, Lifesciences, CA). Experiments were performed on a streptavidin sensor (Nicoya, Lifesciences). SPR was run at a flow rate of 20 μl/min using HBS running buffer (20 mM HEPES, 150 mM NaCl, pH 7.4). First, the streptavidin sensor chip was cleaned with octyl β-D-glucopyranoside (40 mM) and CHAPS (20 mM). 200 μl of biotin-conjugated oligos (1 μg/ml, Table 5) were injected on the sensor chip for 10 minutes until a stable resonance was obtained. After immobilization of bio-oligo, the surface was blocked with BSA (3%) in running buffer. After a stable signal was obtained, IAA (10 nM) was run over the immobilized bio-oligo until a stable resonance was obtained. A negative control test was also performed by injecting IAA onto a blank sensor chip to check for non-specific binding. The sensograms were analyzed using TraceDrawer kinetic analysis software.

[3] = added to ex vivo cultured microglial cells from young mice

Compound | effect on the microglia (cleaved caspase-3) (microglial cells; S100A8 deficient microglia cells) | cleaved caspase-3 (microglial cells; [3]) | cleaved poly(-ADP-ribose) polymerase (PARP) (microglial cells; [3]) | activity of helicase unwinding of the self-complementary binding sequence ([1]; WT Cy3/BHQ1 oligo, with helicase) | unwinding of mutant sequence ([1]; mutant Cy3/BHQ1 oligo) | interaction with IAA (SPR) [2]
CC(C)CCN [IAA, isoamylamine] | abolished | increasing | increasing | enhanced | attenuated | 
S100p1-G: CTGTGGGCAG CTGGCCAAGC (SEQ ID NO: 8), S100A8 promoter −57 . . . −38 (DNA CTGTGGGCAGCTGGCCAAGC; chemistry not given here) |  |  |  |  |  | targeted by IAA
